Results reported in patent publication US4737510A, “Bioactive metabolites from the caribbean sponge agelas coniferin” (priority 1986, dated 1988).
“And” between values parts separate entries of the source, which are not always exact repeats. Equal values may be shown once. Read-outs that look alike come from different tables or passages of the source.

Tests used:
Escherichia coli = assay: Disc diffusion antimicrobial assay, Escherichia coli; assay type: cell-based; conditions: for zone of inhibition at 10 µg/disc / zone of inhibition at 50 µg/disc / zone of inhibition at 100 µg/disc: Escherichia coli, 6.5 mm disc, read-out: diameter of the clear zone of inhibition; for zone of inhibition at 10 µg/disc / activity against Escherichia coli: 10 μg/disk; for zone of inhibition at 50 µg/disc: 50 μg/disk; for zone of inhibition at 100 µg/disc: 100 μg/disk
Bacillus subtilis = assay: Disc diffusion antimicrobial assay, Bacillus subtilis; assay type: cell-based; conditions: for growth inhibition of Bacillus subtilis / zone of inhibition at 10 µg/disc: 10 μg/disk; for zone of inhibition at 10 µg/disc / zone of inhibition at 50 µg/disc / zone of inhibition at 100 µg/disc: Bacillus subtilis, 6.5 mm disc, read-out: diameter of the clear zone of inhibition; for zone of inhibition at 50 µg/disc: 50 μg/disk; for zone of inhibition at 100 µg/disc: 100 μg/disk
[1] = test system: Herpes simplex virus, type I (HSV-1); assay: microbe, parasite or virus in culture; assay type: cell-based; conditions: for zone of inhibition at 20 µg/disc / zone of inhibition at 50 µg/disc / zone of inhibition at 100 µg/disc / zone of inhibition at 200 µg/disc: Human alphaherpesvirus 1, in Primates
[2] = test system: vesicular stomatitis virus (VSV); assay: microbe, parasite or virus in culture; assay type: cell-based; conditions: Vesicular stomatitis virus, in Primates
[3] = test system: Herpes Simplex Virus type 1 (HSV-1); assay: Antiviral activity against HSV-1 determined by Dr. R. G. Hughes, Jr.;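 also: grades: +++ strong ++ moderate + light ± questionable - negative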; assay type: cell-based
E. coli strain BR339 = assay type: cell-based
[4] = test system: Monkey Kidney Cells (CV-1); assay: Cytotoxicity to monkey kidney cells (CV-1) determined by Dr. R. G. Hughes, Jr.; conditions: 8 or less essentially indicates noncytotoxicity
[5] = test system: Balanus amphitrite amphitrite; assay: Barnacle settlement assay, inhibition; assay type: in vivo, Balanus amphitrite amphitrite (barnacle); conditions: Amphibalanus amphitrite
[6] = test system: Balanus amphitrite amphitrite; assay: Barnacle settlement assay, facilitation; assay type: in vivo, Balanus amphitrite amphitrite (barnacle); conditions: Amphibalanus amphitrite
[7] = Stability of isolated solids; assay type: physicochemical; conditions: diacetate salts, amorphous solids
[8] = Water solubility (in words); assay type: physicochemical; conditions: relative to 1a-6a
[9] = read-out: antiviral activity, HSV-1, ++ scale
[10] = read-out: antiviral activity, HSV-1, zone diameter
[11] = read-out: antiviral activity, VSV, ++ scale
[12] = read-out: antiviral activity, VSV, zone diameter

Row | Structure (SMILES) | zone of inhibition at 10 µg/disc (Escherichia coli) [mm] | zone of inhibition at 50 µg/disc (Escherichia coli) [mm] | zone of inhibition at 100 µg/disc (Escherichia coli) [mm] | zone of inhibition at 10 µg/disc (Bacillus subtilis) [mm] | zone of inhibition at 50 µg/disc (Bacillus subtilis) [mm] | zone of inhibition at 100 µg/disc (Bacillus subtilis) [mm] | zone of inhibition at 20 µg/disc [1, 9] [mm] | zone of inhibition at 50 µg/disc [1, 9] [mm] | zone of inhibition at 100 µg/disc [1, 9] [mm] | zone of inhibition at 200 µg/disc [1, 9] [mm] | zone of inhibition at 20 µg/disc [1, 10] [mm] | zone of inhibition at 100 µg/disc [1, 10] [mm] | zone of inhibition at 200 µg/disc [1, 10] [mm] | zone of inhibition at 20 µg/disc [2, 11] [mm] | zone of inhibition at 100 µg/disc [2, 11] [mm] | zone of inhibition at 200 µg/disc [2, 11] [mm] | zone of inhibition at 20 µg/disc [2, 12] [mm] | zone of inhibition at 100 µg/disc [2, 12] [mm] | HSV-1 activity ([3]; 25 μg/disk) | HSV-1 activity ([3]; 50 μg/disk) | further results
1 | Nc1ncc([C@@H]2[C@@H](CNC(=O)c3ccc[nH]3)[C@H](CNC(=O)c3cc(Br)c[nH]3)[C@H]2c2cnc(N)[nH]2)[nH]1 (relative stereo) [Compound 1a, Debromosceptrin Acetate] | 0 | 8 | 11 | 7 | 11 | 12 | 11 to 15 | 11 to 15 | 11 to 15 | > 16 | 11 | 15 | 18 | < 7 | 7 | 8 to 10 | 0 | 7 | ± | ± | growth inhibition of Bacillus subtilis (Bacillus subtilis): most active; zone of inhibition at 50 µg/disc [1, 10]: 12 mm; zone of inhibition at 50 µg/disc [2, 11]: < 7 mm; zone of inhibition at 50 µg/disc [2, 12]: 0 mm; zone of inhibition at 200 µg/disc [2, 12]: 8 mm; HSV-1 activity ([3]; 100 μg/disk): ±; BIA activity (E. coli strain BR339): inducers; BIA activity, numerical color intensity scale 0-10 (E. coli strain BR339): 10 and 7 and 6; cytotoxicity, zone diameter ([4]; 25 μg/disk): 5 mm; cytotoxicity, zone diameter ([4]; 50 μg/disk): 5 mm; cytotoxicity, zone diameter ([4]; 100 μg/disk): 5 mm
2 | Nc1ncc([C@@H]2[C@@H](CNC(=O)c3cc(Br)c[nH]3)[C@H](CNC(=O)c3cc(Br)c[nH]3)[C@H]2c2cnc(N)[nH]2)[nH]1 (relative stereo) [Compound 2a, Sceptrin Acetate] | 7 | 10 | 11 | 9 | 16 | 17 | 11 to 15 | 11 to 15 | 11 to 15 | > 16 | 11 | 13 | 21 | 7 | 11 to 15 | 11 to 15 | 7 | 11 | - | +++ | activity against Escherichia coli (Escherichia coli): active; growth inhibition of Bacillus subtilis (Bacillus subtilis): most active; zone of inhibition at 50 µg/disc [1, 10]: 13 mm; zone of inhibition at 50 µg/disc [2, 11]: 8 to 10 mm; zone of inhibition at 50 µg/disc [2, 12]: 8 mm; zone of inhibition at 200 µg/disc [2, 12]: 13 mm; HSV-1 activity ([3]; 100 μg/disk): ++; BIA activity (E. coli strain BR339): inducers; BIA activity, numerical color intensity scale 0-10 (E. coli strain BR339): 9 and 6; EC50 [5]: 44 µg/mL; EC50 [6]: 0.029 µg/mL; cytotoxicity, zone diameter ([4]; 25 μg/disk): 5 mm; cytotoxicity, zone diameter ([4]; 50 μg/disk): 5 mm; cytotoxicity, zone diameter ([4]; 100 μg/disk): 7 mm
3 | Nc1ncc([C@@H]2[C@@H](CNC(=O)c3cc(Br)c(Br)[nH]3)[C@H](CNC(=O)c3cc(Br)c(Br)[nH]3)[C@H]2c2cnc(N)[nH]2)[nH]1 (relative stereo) [Compound 3a, Dibromosceptrin Acetate] | 0 | 7 | 7 | 0 | 10 | 10 | 8 to 10 | 11 to 15 | 11 to 15 | 11 to 15 | 9 | 12 | 14 | < 7 | 8 to 10 | 11 to 15 | 0 | 10 | - | ++ | zone of inhibition at 50 µg/disc [1, 10]: 11 mm; zone of inhibition at 200 µg/disc [2, 12]: 12 mm; HSV-1 activity ([3]; 100 μg/disk): +++; BIA activity (E. coli strain BR339): somewhat less active; BIA activity, numerical color intensity scale 0-10 (E. coli strain BR339): 3 and 2; cytotoxicity, zone diameter ([4]; 25 μg/disk): 5 mm; cytotoxicity, zone diameter ([4]; 50 μg/disk): 5 mm; cytotoxicity, zone diameter ([4]; 100 μg/disk): 7 mm
4 | Nc1ncc(C2c3nc(N)[nH]c3CC(CNC(=O)c3cc(Br)c[nH]3)C2CNC(=O)c2cc(Br)c[nH]2)[nH]1 (stereo not drawn) [Compound 4a, Ageliferin Acetate] | 7 | 9 | 9 | 10 | 15 | 16 | 8 to 10 | 11 to 15 | 11 to 15 | > 16 | 10 | 14 | 17 | < 7 | 8 to 10 | 11 to 15 | 0 | 10 | - | + | activity against Escherichia coli (Escherichia coli): active; zone of inhibition at 50 µg/disc [1, 10]: 13 mm; zone of inhibition at 50 µg/disc [2, 11]: 8 to 10 mm; zone of inhibition at 50 µg/disc [2, 12]: 8 mm; zone of inhibition at 200 µg/disc [2, 12]: 12 mm; HSV-1 activity ([3]; 100 μg/disk): ++; EC50 [5]: 21 µg/mL; cytotoxicity, zone diameter ([4]; 25 μg/disk): 5 mm; cytotoxicity, zone diameter ([4]; 50 μg/disk): 5 mm; cytotoxicity, zone diameter ([4]; 100 μg/disk): 8 mm
5 | Nc1ncc(C2c3nc(N)[nH]c3CC(CNC(=O)c3cc(Br)c(Br)[nH]3)C2CNC(=O)c2cc(Br)c[nH]2)[nH]1 (stereo not drawn) [Compound 5a, Bromoageliferin Acetate] | 7 | 8 | 8 | 10 | 12 | 12 | 8 to 10 | 11 to 15 | 11 to 15 | 11 to 15 | 9 | 11 | 13 | < 7 | 8 to 10 | 8 to 10 | 0 | 10 | - | ± | activity against Escherichia coli (Escherichia coli): active; zone of inhibition at 50 µg/disc [1, 10]: 11 mm; zone of inhibition at 50 µg/disc [2, 11]: < 7 mm; zone of inhibition at 50 µg/disc [2, 12]: 0 mm; zone of inhibition at 200 µg/disc [2, 12]: 10 mm; HSV-1 activity ([3]; 100 μg/disk): ++; BIA activity, numerical color intensity scale 0-10 (E. coli strain BR339): 3 and 2; cytotoxicity, zone diameter ([4]; 25 μg/disk): 5 mm; cytotoxicity, zone diameter ([4]; 50 μg/disk): 5 mm; cytotoxicity, zone diameter ([4]; 100 μg/disk): 7 mm
6 | NC1=NC(=O)C(C2C(CNC(=O)c3cc(Br)c[nH]3)C(CNC(=O)c3cc(Br)c[nH]3)C2c2cnc(N)[nH]2)N1 (stereo not drawn) [Compound 8a, Oxysceptrin Acetate] | 0 | 8 | 10 | 0 | 14 | 15 | < 7 | 8 to 10 | 11 to 15 | 11 to 15 | 0 | 11 | 12 | < 7 | 8 to 10 | 8 to 10 | 0 | 8 | - | - | antiviral zone appearance [1]: diffuse zones; zone of inhibition at 50 µg/disc [2, 11]: < 7 mm; zone of inhibition at 50 µg/disc [2, 12]: 0 mm; HSV-1 activity ([3]; 100 μg/disk): +; BIA activity (E. coli strain BR339): inducers; BIA activity, numerical color intensity scale 0-10 (E. coli strain BR339): 9 and 6; BIA zone appearance (E. coli strain BR339): more diffuse zone; EC50 [6]: 0.017 µg/mL; stability [7]: stable; water solubility [8]: more water soluble; cytotoxicity, zone diameter ([4]; 25 μg/disk): 5 mm; cytotoxicity, zone diameter ([4]; 50 μg/disk): 5 mm; cytotoxicity, zone diameter ([4]; 100 μg/disk): 6 mm
